These are literature values, as cited in paper PMC6379498, “Radiosynthesis and in vivo evaluation of ^11C-labeled BMS-193885 and its desmethyl analog as PET tracers for neuropeptide Y1 receptors” (EJNMMI Radiopharmacy and Chemistry, 2019).

One series has as its system animal models of obesity. The arrangement: method as in Antal-Zimanyi et al. [2008]. Particulars: acute and chronic administration, ref Antal-Zimanyi et al. [2008]; cited from earlier work.
The next series addresses NPY Y1-R. More on the design: method as in Poindexter et al. [2002]. To be noted: ref Poindexter et al. [2002]; cited from earlier work.
Details of series [1]: method as in Poindexter et al. [2002]. To be noted: in vitro, unlabeled 1, ref Poindexter et al. [2002]; cited from earlier work.
Details of series [2]: method as in Antal-Zimanyi et al. [2008]. To be noted: rats, ref Antal-Zimanyi et al. [2008]; cited from earlier work.
On the set-up of series [3]: method as in Antal-Zimanyi et al. [2008]. To be noted: dogs, ref Antal-Zimanyi et al. [2008]; cited from earlier work.
On the set-up of series [4]: method as in Antal-Zimanyi et al. [2008]. Particulars: ref Antal-Zimanyi et al. [2008]; cited from earlier work.

SMILES strings stand for the structures. Read-outs that look alike come from different tables or passages of the source.

Consider `COC(=O)C1=C(C)NC(C)=C(C(=O)OC)C1c1cccc(NC(=O)NCCCN2CCC(c3cccc(OC)c3)CC2)c1` [Compound 1], for which, in the series on animal models of obesity, the Body weight result is on record as “reduced” and the Food intake entry is recorded as “reduced”. Also, the Ki (commonly a measure of affinity in units of concentration, obtained from inhibition or displacement) on NPY Y1-R is 3.3 nM. Moreover, in series [1], the “Stability in rat liver microsomes” value is recorded as “good stability”. Besides, the Adverse cardiovascular effects entry in series [2] is recorded as “no serious adverse cardiovascular effects”. The Adverse cardiovascular effects result in series [3] is given as “no serious adverse cardiovascular effects”. Moreover, in series [4], the Brain penetration entry is given as “good”, the Oral bioavailability result is “lacks oral bioavailability” and the Systemic bioavailability result is listed as “good”.

Consider `COC(=O)C1=C(C)NC(C)=C(C(=O)OC)C1c1cccc(NC(=O)NCCCN2CCC(c3cccc(O)c3)CC2)c1` [Compound 2, Dimethyl 4-(3-(3-(3-(4-(3-hydroxyphenyl)piperidin-1-yl)propyl)ureido)phenyl)-2,6-dimethyl-1,4-dihydropyridine-3,5-dicarboxylate], for which the Ki at NPY Y1-R was 2.7 nM.
